In ChEMBL document CHEMBL1201862, “PubChem BioAssay data set” (2004):
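How tested: cells in 96-well plates exposed to compound for 48 hours at five concentrations. Here, GI50 denotes the concentration required for 50% inhibition of growth.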 Activity calls are given as the source filed them. Cut-off read from the data, not from the text of the source: active = GI50 up to about 1.1 µM and inactive = higher.

How the values were obtained:
Test in all cases: NCI-60 cell line screen, 48 h
ACHN = tested on: ACHN
SK-OV-3 = tested on: SK-OV-3
HOP-62 = tested on: HOP-62
TK-10 = tested on: TK-10
CAKI-1 = tested on: CAKI-1
NCI/ADR-RES = tested on: NCI/ADR-RES
NCI-H23 = tested on: NCI-H23
RPMI-8226 = tested on: RPMI-8226
SF-268 = tested on: SF-268
UACC-62 = tested on: UACC-62
MCF7 = tested on: MCF7
T47D = tested on: T47D
MDA-N = tested on: MDA-N
HCC 2998 = tested on: HCC 2998
HCT-15 = tested on: HCT-15
SR = tested on: SR
MDA-MB-435 = tested on: MDA-MB-435
M14 = tested on: M14
KM12 = tested on: KM12
IGROV-1 = tested on: IGROV-1
OVCAR-4 = tested on: OVCAR-4
MOLT-4 = tested on: MOLT-4
SF-295 = tested on: SF-295
DU-145 = tested on: DU-145
SNB-75 = tested on: SNB-75
SK-MEL-28 = tested on: SK-MEL-28
NCI-H522 = tested on: NCI-H522
Hs-578T = tested on: Hs-578T
HOP-92 = tested on: HOP-92
NCI-H226 = tested on: NCI-H226
PC-3 = tested on: PC-3
786-0 = tested on: 786-0
UO-31 = tested on: UO-31
SK-MEL-5 = tested on: SK-MEL-5
HCT-116 = tested on: HCT-116
Malme-3M = tested on: Malme-3M
OVCAR-5 = tested on: OVCAR-5
SN12C = tested on: SN12C
K562 = tested on: K562
A549 = tested on: A549
SF-539 = tested on: SF-539
RXF 393 = tested on: RXF 393
U-251 = tested on: U-251
LOX IMVI = tested on: LOX IMVI
HT-29 = tested on: HT-29
MDA-MB-231 = tested on: MDA-MB-231
NCI-H460 = tested on: NCI-H460
CCRF-CEM = tested on: CCRF-CEM
OVCAR-8 = tested on: OVCAR-8
SW-620 = tested on: SW-620
SNB-19 = tested on: SNB-19
OVCAR-3 = tested on: OVCAR-3
COLO 205 = tested on: COLO 205
UACC-257 = tested on: UACC-257
HL-60 = tested on: HL-60
SK-MEL-2 = tested on: SK-MEL-2
A498 = tested on: A498
EKVX = tested on: EKVX

Measured: GI50

Clc1ncnc(Cl)c1Cl
inactive: ACHN > 100 µM | SK-OV-3 > 100 µM | HOP-62 > 100 µM | TK-10 > 100 µM | CAKI-1 > 100 µM | NCI/ADR-RES > 100 µM | NCI-H23 > 100 µM | RPMI-8226 4.41 µM | SF-268 > 100 µM | UACC-62 > 100 µM | MCF7 > 100 µM | T47D > 100 µM | MDA-N > 100 µM | HCC 2998 > 100 µM | SR > 100 µM | MDA-MB-435 > 100 µM | M14 > 100 µM | KM12 > 100 µM | IGROV-1 > 100 µM | OVCAR-4 > 100 µM | MOLT-4 > 100 µM | SF-295 > 100 µM | DU-145 > 100 µM | SNB-75 > 100 µM | SK-MEL-28 > 100 µM | NCI-H522 > 100 µM | Hs-578T > 100 µM | HOP-92 > 100 µM | NCI-H226 > 100 µM | PC-3 > 100 µM | 786-0 > 100 µM | UO-31 > 100 µM | SK-MEL-5 > 100 µM | HCT-116 > 100 µM | Malme-3M > 100 µM | OVCAR-5 > 100 µM | SN12C > 100 µM | K562 > 100 µM | A549 > 100 µM | SF-539 > 100 µM | RXF 393 > 100 µM | U-251 > 100 µM | LOX IMVI > 100 µM | HT-29 > 100 µM | MDA-MB-231 > 100 µM | NCI-H460 > 100 µM | CCRF-CEM > 100 µM | OVCAR-8 > 100 µM | SW-620 > 100 µM | SNB-19 > 100 µM | OVCAR-3 > 100 µM | COLO 205 > 100 µM
> 100 µM: HCT-15

COc1ccc(C2OC(c3ccncc3)=NN2C)cc1OC (centres undefined)
inactive: ACHN > 100 µM | SK-OV-3 > 100 µM | HOP-62 94.6 µM | TK-10 79.4 µM | CAKI-1 73.3 µM | NCI/ADR-RES > 100 µM | NCI-H23 > 100 µM | RPMI-8226 > 100 µM | SF-268 > 100 µM | UACC-62 > 100 µM | UACC-257 > 100 µM | MCF7 71.3 µM | T47D 67.1 µM | MDA-N > 100 µM | HCC 2998 > 100 µM | HL-60 96.8 µM | MDA-MB-435 > 100 µM | M14 > 100 µM | KM12 > 100 µM | IGROV-1 > 100 µM | OVCAR-4 > 100 µM | MOLT-4 75.7 µM | SK-MEL-2 > 100 µM | SF-295 > 100 µM | A498 33.5 µM | DU-145 > 100 µM | SK-MEL-28 > 100 µM | NCI-H522 > 100 µM | Hs-578T 67 µM | HOP-92 48.9 µM | NCI-H226 81.7 µM | EKVX > 100 µM | PC-3 53.2 µM | 786-0 > 100 µM | UO-31 60.1 µM | SK-MEL-5 92.5 µM | HCT-116 > 100 µM | Malme-3M > 100 µM | OVCAR-5 > 100 µM | SN12C > 100 µM | K562 > 100 µM | A549 > 100 µM | SF-539 > 100 µM | RXF 393 93.5 µM | U-251 > 100 µM | LOX IMVI > 100 µM | HT-29 > 100 µM | MDA-MB-231 67.6 µM | NCI-H460 > 100 µM | CCRF-CEM > 100 µM | OVCAR-8 > 100 µM | SW-620 > 100 µM | SNB-19 > 100 µM | OVCAR-3 > 100 µM | COLO 205 > 100 µM
> 100 µM: HCT-15
